Experimental data as given in patent US12146004B2, “Polymyxin compounds and uses thereof” (priority 2014, dated 2024).
In brackets after ≈: the same amount, converted by molar mass. Like-named read-outs stand apart in the source and are kept apart here. Numbered stars: 1 amine (or outer) side, 2 acyl side, 3 side chain; on linkers, the order of the positions; unused ones are H or OH. Bridge positions count the residues as written; N and C are the ends. Square brackets hold non-standard residues; d marks the D form. Peptide text beside a SMILES is read from it. * marks the point of attachment. ξ: configuration not given here. X5 = CCCCCCCCc1ccc(C[C@@H](N[*:1])C(=O)[*:2])cc1; Thr(3ξ) = CC(O)[C@H](N)C(=O)O; X4 = CC(C)CC1CNCC(C(=O)*)C1; Dab = NCC[C@H](N)C(=O)O; Dap = NC[C@H](N)C(=O)O

Tests used:
Assay type in all cases: cell-based
Acinetobacter baumannii = tested on: Acinetobacter baumannii
Outline: (§1)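 Values are minimum inhibitory concentrations in μg/mL, measured across a panel of up to nine strains of each Gram-negative pathogen, some Polymyxin-elevated or resistant.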

Escherichia coli = tested on: Escherichia coli
Outline: as §1

Klebsiella pneumoniae = tested on: Klebsiella pneumoniae
Outline: as §1

Pseudomonas aeruginosa = tested on: Pseudomonas aeruginosa
Outline: as §1

Row | SMILES | MIC A. baumanii 053 (Acinetobacter baumannii) [µg/mL] | MIC A. baumanii 056 (Acinetobacter baumannii) [µg/mL] | MIC A. baumanii ATCC BAA-747 (Acinetobacter baumannii) [µg/mL] | MIC A. baumanii NCTC 13424 (Acinetobacter baumannii) [µg/mL] | MIC E. coli 058 (Escherichia coli) [µg/mL] | MIC E. coli 061 (Escherichia coli) [µg/mL] | MIC E. coli ATCC 25922 (Escherichia coli) [µg/mL] | MIC K. pneumoniae 063 (Klebsiella pneumoniae) [µg/mL] | MIC K. pneumoniae 065 (Klebsiella pneumoniae) [µg/mL] | MIC K. pneumoniae ATCC 13882 (Klebsiella pneumoniae) [µg/mL] | MIC P. aeruginosa 068 (Pseudomonas aeruginosa) [µg/mL] | MIC P. aeruginosa 070 (Pseudomonas aeruginosa) [µg/mL] | MIC P. aeruginosa ATCC 27853 (Pseudomonas aeruginosa) [µg/mL] | MIC P. aeruginosa CCUG 59347 (Pseudomonas aeruginosa) [µg/mL] | MIC K. pneumoniae ATCC 4352 (Klebsiella pneumoniae) [µg/mL] | further results
1 | CC(C)C[C@@H]1NC(=O)[C@@H](CC2CCCCC2)NC(=O)[C@H](CCN)NC(=O)[C@@H](NC(=O)[C@H](CN)NC(=O)[C@@H](NC(=O)C(CCN)Cc2ccccc2F)[C@@H](C)O)CCNC(=O)[C@H]([C@@H](C)O)NC(=O)[C@H](CCN)NC(=O)[C@H](CCN)NC1=O (single isomer, unassigned; isomer 2) [Example 65, 4-amino-2-(2-fluorobenzyl) butanoyl L-Thr-L-Dap-polymyxin [D-cyclohexylalanine]-6 heptapeptide. Isomer 2] | >64 | >64 | 0.25 (≈ 0.218 µM) | 1 (≈ 0.871 µM) | 4 (≈ 3.48 µM) | 16 (≈ 13.9 µM) | 0.25 (≈ 0.218 µM) | 16 (≈ 13.9 µM) | 2 (≈ 1.74 µM) | 0.25 (≈ 0.218 µM) | 2 (≈ 1.74 µM) | 2 (≈ 1.74 µM) | 0.5 (≈ 0.435 µM) | 0.5 (≈ 0.435 µM) | – | –
2 | CC(C)C[C@@H]1NC(=O)[C@@H](CC2CCCCC2)NC(=O)[C@H](CCN)NC(=O)[C@@H](NC(=O)[C@H](CCN)NC(=O)[C@@H](NC(=O)C(CCN)C2CCCCC2)[C@@H](C)O)CCNC(=O)[C@H]([C@@H](C)O)NC(=O)[C@H](CCN)NC(=O)[C@H](CCN)NC1=O (single isomer, unassigned; isomer 2) [Example 69, 4-amino-2-cyclohexylbutanoyl polymyxin [D-cyclohexylalanine]-6 nonapeptide isomer 2] | >64 | 64 (≈ 56.3 µM) | 0.25 (≈ 0.22 µM) | 0.06 (≈ 0.0528 µM) | 4 (≈ 3.52 µM) | 16 (≈ 14.1 µM) | 0.06 (≈ 0.0528 µM) | 16 (≈ 14.1 µM) | 0.5 (≈ 0.44 µM) | 0.25 (≈ 0.22 µM) | 4 (≈ 3.52 µM) | 8 (≈ 7.04 µM) | 0.25 (≈ 0.22 µM) | 0.5 (≈ 0.44 µM) | 0.25 (≈ 0.22 µM) | MIC E. coli NCTC 9001 (Escherichia coli): 0.03 µg/mL (≈ 0.0264 µM)
3 | CC(C)C[C@@H]1NC(=O)[C@@H](CC2CCCCC2)NC(=O)[C@H](CCN)NC(=O)[C@@H](NC(=O)[C@H](CCN)NC(=O)[C@@H](NC(=O)C(CCN)c2cccs2)[C@@H](C)O)CCNC(=O)[C@H]([C@@H](C)O)NC(=O)[C@H](CCN)NC(=O)[C@H](CCN)NC1=O (single isomer, unassigned; isomer 2) [Example 70, 4-amino-2-(thiophen-2-yl)butanoyl polymyxin [D-cyclohexylalanine]-6 nonapeptide isomer 2] | 32 (≈ 28.2 µM) | 16 (≈ 14.1 µM) | 0.25 (≈ 0.22 µM) | 0.25 (≈ 0.22 µM) | 8 (≈ 7.04 µM) | 32 (≈ 28.2 µM) | 0.125 (≈ 0.11 µM) | 64 (≈ 56.3 µM) | 8 (≈ 7.04 µM) | 0.125 (≈ 0.11 µM) | 8 (≈ 7.04 µM) | 32 (≈ 28.2 µM) | 0.25 (≈ 0.22 µM) | 0.5 (≈ 0.44 µM) | – | –
4 | CC(C)CCC(CCN)C(=O)N[C@H](C(=O)N[C@@H](CN)C(=O)N[C@H]1CCNC(=O)[C@H]([C@@H](C)O)NC(=O)[C@H](CCN)NC(=O)[C@H](CCN)NC(=O)[C@H](CC(C)C)NC(=O)[C@@H](CC2CCCCC2)NC(=O)[C@H](CCN)NC1=O)[C@@H](C)O (single isomer, unassigned; isomer 2) [Example 80, 2-(2-aminoethyl)-5-methylhexanoyl L-Thr-L-Dap-polymyxin [D-cyclohexylalanine-6]heptapeptide. isomer 2] | 64 (≈ 57.6 µM) | 32 (≈ 28.8 µM) | 0.125 (≈ 0.113 µM) | 0.125 (≈ 0.113 µM) | 2 (≈ 1.8 µM) | 8 (≈ 7.2 µM) | 0.125 (≈ 0.113 µM) | 8 (≈ 7.2 µM) | 2 (≈ 1.8 µM) | 0.25 (≈ 0.225 µM) | 2 (≈ 1.8 µM) | 2 (≈ 1.8 µM) | 0.25 (≈ 0.225 µM) | 0.5 (≈ 0.45 µM) | 0.06 (≈ 0.054 µM) | MIC E. coli NCTC 9001 (Escherichia coli): 0.03 µg/mL (≈ 0.027 µM)
5 | CC(C)C[C@@H]1NC(=O)[C@@H](CC2CCCCC2)NC(=O)[C@H](CCN)NC(=O)[C@@H](NC(=O)[C@H](CCN)NC(=O)[C@@H](NC(=O)CC(CN)C2CCCCC2)[C@@H](C)O)CCNC(=O)[C@H]([C@@H](C)O)NC(=O)[C@H](CCN)NC(=O)[C@H](CCN)NC1=O (single isomer, unassigned; isomer 2) [Example 87, 4-amino-3-cyclohexylbutanoyl polymyxin [D-cyclohexylalanine-6]nonapeptide. Isomer 2] | – | – | – | – | – | – | – | – | – | – | – | – | – | – | – | MIC A. baumanii 053 (Acinetobacter baumannii; strain 053): 64 µg/mL (≈ 56.3 µM); MIC A. baumanii 056 (Acinetobacter baumannii; strain 056): 64 µg/mL (≈ 56.3 µM); MIC A. baumanii ATCC BAA-747 (Acinetobacter baumannii; strain ATCC BAA-747): 0.25 µg/mL (≈ 0.22 µM); MIC A. baumanii NCTC 13424 (Acinetobacter baumannii; strain NCTC 13424): 0.125 µg/mL (≈ 0.11 µM); MIC E. coli 058 (Escherichia coli; strain 058): 4 µg/mL (≈ 3.52 µM); MIC E. coli 061 (Escherichia coli; strain 061): 16 µg/mL (≈ 14.1 µM); MIC E. coli ATCC 25922 (Escherichia coli; strain ATCC 25922): 0.125 µg/mL (≈ 0.11 µM); MIC E. coli NCTC 9001 (Escherichia coli; strain NCTC 9001): 0.125 µg/mL (≈ 0.11 µM); MIC K. pneumoniae 063 (Klebsiella pneumoniae; strain 063): 16 µg/mL (≈ 14.1 µM); MIC K. pneumoniae 065 (Klebsiella pneumoniae; strain 065): 0.5 µg/mL (≈ 0.44 µM); MIC K. pneumoniae ATCC 13882 (Klebsiella pneumoniae; strain ATCC 13882): 0.25 µg/mL (≈ 0.22 µM); MIC P. aeruginosa 068 (Pseudomonas aeruginosa; strain 068): 2 µg/mL (≈ 1.76 µM); MIC P. aeruginosa 070 (Pseudomonas aeruginosa; strain 070): 8 µg/mL (≈ 7.04 µM); MIC P. aeruginosa ATCC 27853 (Pseudomonas aeruginosa; strain ATCC 27853): 0.25 µg/mL (≈ 0.22 µM); MIC P. aeruginosa CCUG 59347 (Pseudomonas aeruginosa; strain CCUG 59347): 0.5 µg/mL (≈ 0.44 µM)
6 | CC(C)CCC(CCN)C(=O)N[C@H](C(=O)N[C@@H](CCN)C(=O)N[C@H]1CCNC(=O)[C@H]([C@@H](C)O)NC(=O)[C@H](CCN)NC(=O)[C@H](CCN)NC(=O)[C@H](CC(C)C)NC(=O)[C@@H](CC2CCCCC2)NC(=O)[C@H](CCN)NC1=O)[C@@H](C)O (single isomer, unassigned; isomer 2) [Example 89, 2-(2-aminoethyl)-5-methylhexanoyl polymyxin [D-cyclohexylalanine-6]nonapeptide. Isomer 2] | – | – | 0.5 (≈ 0.445 µM) | 0.25 (≈ 0.222 µM) | 16 (≈ 14.2 µM) | – | 0.125 (≈ 0.111 µM) | – | 32 (≈ 28.5 µM) | 0.25 (≈ 0.222 µM) | – | – | 0.5 (≈ 0.445 µM) | 1 (≈ 0.889 µM) | – | –
7 | CCC(CC)CC(CCN)C(=O)N[C@H](C(=O)N[C@@H](CCN)C(=O)N[C@H]1CCNC(=O)[C@H]([C@@H](C)O)NC(=O)[C@H](CCN)NC(=O)[C@H](CCN)NC(=O)[C@H](CC(C)C)NC(=O)[C@@H](CC2CCCCC2)NC(=O)[C@H](CCN)NC1=O)[C@@H](C)O (single isomer, unassigned; isomer 2) [Example 92, 2-(2-aminoethyl)-4-ethylhexanoyl polymyxin [D-cyclohexylalanine]-6 nonapeptide. Isomer 2] | – | – | 0.125 (≈ 0.11 µM) | 0.125 (≈ 0.11 µM) | 4 (≈ 3.51 µM) | – | 0.06 (≈ 0.0527 µM) | – | 8 (≈ 7.03 µM) | 0.25 (≈ 0.22 µM) | – | – | 0.25 (≈ 0.22 µM) | 1 (≈ 0.878 µM) | – | –
8 | CCCCCCCCc1ccc(C[C@H]2NC(=O)[C@H](CCN)NC(=O)[C@@H](NC(=O)[C@H](CN)NC(=O)[C@@H](NC(=O)C3CNCC(CC(C)C)C3)C(C)O)CCNC(=O)[C@H]([C@@H](C)O)NC(=O)[C@H](CCN)NC(=O)[C@H](CCN)NC(=O)[C@H](CC(C)C)NC2=O)cc1 (stereo partly shown) [Example 23] (X4-[Thr(3ξ)][Dap][Dab][Dab][X5]L[Dab][Dab]T; lactam 3-C) | 2 (≈ 1.63 µM) | 1 (≈ 0.814 µM) | 2 (≈ 1.63 µM) | – | 2 (≈ 1.63 µM) | 2 (≈ 1.63 µM) | 2 (≈ 1.63 µM) | 8 (≈ 6.51 µM) | 2 (≈ 1.63 µM) | – | 4 (≈ 3.26 µM) | 4 (≈ 3.26 µM) | 2 (≈ 1.63 µM) | – | 1 (≈ 0.814 µM) | MIC E. coli 059 (Escherichia coli): 2 µg/mL (≈ 1.63 µM); MIC E. coli 060 (Escherichia coli): 2 µg/mL (≈ 1.63 µM); MIC K. pneumoniae 062 (Klebsiella pneumoniae): 4 µg/mL (≈ 3.26 µM); MIC K. pneumoniae 064 (Klebsiella pneumoniae): 4 µg/mL (≈ 3.26 µM); MIC K. pneumoniae 066 (Klebsiella pneumoniae): 2 µg/mL (≈ 1.63 µM); MIC K. pneumoniae 067 (Klebsiella pneumoniae): 4 µg/mL (≈ 3.26 µM)
